Like-named read-outs stand apart in the source and are kept apart here.
What was measured:
HEK293 = assay: AK (adenylate kinase release) cytotoxicity assay, HEK293; format: cell-based
Source text: FIG. 27. Toxicology of Motor1 using the human kidney cell line HEK293. Results from (A) MTS assay (B) AK assay. Untreated population (UT), Distilled water (D), Erythromycin (E), Erythromycin Estolate (EE).
(§1) Toxicity Studies: To measure the cellular toxicity of Motor1 we use two complementary assays: an MTS (CellTiter 96 AQueous Kit®) assay that measures cellular metabolism, and a cytotoxicity assay (Toxilight®BioAssay Kit) that measures cell death via the release of the cytosolic enzyme adenylate kinase into the supernatant. Both assays were used with two different cell lines commonly used in drug toxicity studies, HEK293 and HepG2 cell lines. HEK293, a human kidney cell line, is used to assess the effect of the drug candidate on the renal system and HepG2, a human hepatocyte cell line, is used to assess the response of liver cells where drugs are metabolized. Both assays included the use of an untreated population, and cells treated with distilled water, erythromycin and erythromycin estolate. Erythromycin is a commercially available drug widely used to treat bacterial infections. […] […].
(§2) Both cell lines were incubated with the containers (0.01, 0.1, 1 and 10 mM) for 2 days prior to analysis with the two assays. Relative absorbance and luminescence data was normalized to percent cell viability (MTS) and cell death (AK). For the MTS assay, the untreated cells were set at 100% cell viability while the cell population treated with distilled water was set at a 100% cell death for the AK assay.

[1] = Binding affinities of compounds towards Motor2
[2] = Binding of Motor1 and Motor2 with Ketamine (Rhodamine 6G indicator competition, UV-VIS); conditions: Rhodamine 6G displacement titration, 20 mM phosphate buffer pH 7.4
[3] = tested on: cisatracurium-induced neuromuscular block; assay: Reversal of cisatracurium-induced neuromuscular block in anesthetized rats; format: in vivo; conditions: for Time until normal breathing recovered / Time until quadriceps femoris twitch height normalized: cisatracurium; for Time until normal breathing recovered: placebo 750 (17) s, means (SD); for Time until quadriceps femoris twitch height normalized: placebo 1002 (122) s
Description: (§3) Spontaneous breathing was maintained during surgery and if possible according to normal protocol. Rats lay in the supine position with the head supported in a neutral position in the midline on a soft piece of tissue. The left femoral vein and artery were cannulated for drug infusion and blood sampling. […] Corning, N.Y., USA) and continuous measurement of blood pressure (PowerLab; ADInstruments, Colorado Springs, Mo.) and heart rate were performed. If mechanical ventilation was necessary animals were ventilated through a tracheostomy (SAR-830; CWE, Ardmore, Pa., USA). Rectal temperature was kept at 37.0±0.1° C. using a thermostatic heating pad (FHC, Bowdoinham, Me.). Level of anesthesia was maintained throughout the experiment to eliminate cardiovascular response to tail pinch. In all treatment groups, systemic physiological parameters were kept well within normal range. The right leg was shaved and the femoral nerve was stimulated supramaximally with subcutaneous needle electrodes, and the evoked response of the quadriceps femoris muscle was measured by accelerometry, with the TOF-Watch SX Monitor (Organon Ireland Ltd, a part of Schering-Plough Corporation, Dublin, Ireland), as described previously (Fassbender et al, Anesthesiology 2007). The transducer was fixed to the skin ventromedially at the proximal end of the thigh, next to the tibial tuberosity (insertion point of the patellar ligament). […] Endpoints included time to recovery of spontaneous breathing, twitch height as well as TOF-ratio.

ketamine anesthesia = assay: Reversal of ketamine anesthesia in rats; format: in vivo
[4] = rat, in vivo
[5] = tested on: rocuronium-induced neuromuscular block; assay: Reversal of rocuronium-induced neuromuscular block in anesthetized rats; format: in vivo; conditions: for Time until normal breathing recovered: rocuronium 3.5 mg/kg, placebo 720 s; for Time until quadriceps femoris twitch height normalized: rocuronium, placebo 960 s
Description: as §3

[6] = Binding of Motor1 and Motor2 with Etomidate
[7] = Self-association study by 1H NMR at varied concentration; format: physicochemical; conditions: 20 mM NaD2PO4, pD=7.4, 1H NMR
[8] = rat, in vivo; remark: listed apart in the source
[9] = Tolerance in mice after tail vein injection (body weight); format: in vivo; conditions: tail vein injection at day 0, 4 and 8, weight monitored
Description: FIG. 30. […] Indicated amounts of Motor1 were injected into the tail vein of outbred Swiss Webster mice at day 0, 4 and 8. The weight of each mouse was monitored over time and there were 5 mice per experimental group.
Indicated amounts of Motor1 were injected into the tail vein of outbred Swiss Webster mice at day 0, 4 and 8. The weight of each mouse was monitored over time and there were 5 mice per experimental group.

HepG2 = format: cell-based; conditions: untreated population 60%
Source text: FIG. 28. Toxicology of Motor1 using the human liver cell line HepG2. Results from (A) MTS assay (B) AK assay. Untreated population (UT), Distilled water (D), Erythromycin (E), Erythromycin Estolate (EE).
as §1, §2

[10] = Binding constants of Motor1 towards guests; conditions: host Motor1
[11] = ketamine anesthesia, Motor2 200 mg

CCC(=O)O[C@H]1[C@H](O[C@@H]2[C@@H](C)[C@H](O[C@H]3C[C@@](C)(OC)[C@@H](O)[C@H](C)O3)[C@@H](C)C(=O)O[C@H](CC)[C@@](C)(O)[C@H](O)[C@@H](C)C(=O)[C@H](C)C[C@@]2(C)O)O[C@H](C)C[C@@H]1N(C)C [Erythromycin estolate]
Percent cell death (AK) (HEK293; human, 2 days, 1 mM): 49%

Nc1ccc2cc3ccc(N)cc3nc2c1 [Proflavin]
Ka (M^−1) with Motor2 ([1]; host Motor2): 7.8 ± 0.8 × 10^8 M^−1

CC12N3Cc4c(c(OCCCS(=O)(=O)[O-])c5ccccc5c4OCCCS(=O)(=O)[O-])CN1C(=O)N1CN4C(=O)N5CN6C(=O)N7CN8C(=O)N9Cc%10c(c(OCCCS(=O)(=O)[O-])c%11ccccc%11c%10OCCCS(=O)(=O)[O-])CN%10C(=O)N(CN%11C(=O)N(CN%12C(=O)N(CN(C3=O)C12C)C4C%125)C6C%117)C8(C)C%109C.[Na+].[Na+].[Na+].[Na+] (centres unmarked) [Motor2]
Binding constant (Ka) with Ketamine [2]: 193490 M⁻¹
Speed of reversal of cisatracurium, twitch height recovery (comparison) ([3]; low-dose Motor2 versus high-dose Motor1): reverses the benzylisoquinolinum cisatracurium faster than high-dose 1
Reversal of ketamine anesthesia (in words) (ketamine anesthesia; ketamine 1500 μg/kg/min, Motor2 200 mg at 60 minutes): reverses ketamine anesthesia
Electroencephalogram (EEG) (ketamine anesthesia; [11]): wakefulness-like electrical activity
Respiratory rate and arterial blood pressure (ketamine anesthesia; [11]): increased
Time until the rat woke up after injection (ketamine anesthesia; steady-state ketamine infusion, Motor2 200 mg): ≤ 2 min
Side effects on arterial blood-gas analysis, EKG, arterial blood pressure, heart rate [4]: did not have any side effects
Mean time to recovery of the twitch height to 90% ([5]; complete rocuronium-induced block, 90 mg, placebo 19 minutes): 2.5 min
Binding constant with Etomidate [6]: 36812 M⁻¹
Ka, two-fold self-association model [7]: 624 M⁻¹

Cyclohexanediamine
Ka (M^−1) with Motor2 ([1]; host Motor2): 2.1 ± 0.2 × 10^8 M^−1

CC[C@H]1OC(=O)[C@H](C)[C@@H](O[C@H]2C[C@@](C)(OC)[C@@H](O)[C@H](C)O2)[C@H](C)[C@@H](O[C@@H]2O[C@H](C)C[C@H](N(C)C)[C@H]2O)[C@](C)(O)C[C@@H](C)C(=O)[C@H](C)[C@@H](O)[C@]1(C)O [Erythromycin]
Percent cell death (AK) (HEK293; HEK293, 1 mM): 25%

CC12N3Cc4c(OCCCS(=O)(=O)[O-])ccc(OCCCS(=O)(=O)[O-])c4CN1C(=O)N1CN4C(=O)N5CN6C(=O)N7CN8C(=O)N9Cc%10c(OCCCS(=O)(=O)[O-])ccc(OCCCS(=O)(=O)[O-])c%10CN%10C(=O)N(CN%11C(=O)N(CN%12C(=O)N(CN(C3=O)C12C)C4C%125)C6C%117)C8(C)C%109C.[Na+].[Na+].[Na+].[Na+] (centres unmarked) [Motor1]
Percent hemolysis (human erythrocytes): ≤ 20%
Toxicity to human erythrocytes (overall) (human erythrocytes): non-toxic
Binding constant (Ka) with Ketamine [2]: 39020 M⁻¹
Motor1 concentration in the urine relative to plasma [8]: equals concentration in the plasma
Tolerance in mice [9]: well tolerated
Time until normal breathing recovered ([3]; 30 mg Motor1): 28 (6) s
Time until normal breathing recovered ([3]; 60 mg Motor1): 11 (4) seconds
Time until quadriceps femoris twitch height normalized ([3]; first Motor1 dose listed (dose not given; 15 mg)): 266 (17) s
Time until quadriceps femoris twitch height normalized ([3]; second Motor1 dose listed (30 mg)): 130 (14) s
Time until quadriceps femoris twitch height normalized ([3]; third Motor1 dose listed (60 mg)): 68 (10) s
Arterial blood gas parameters pH, pCO2, and pO2 [4]: did not change
Heart rate and mean arterial blood pressure [4]: did not change
Side effects on arterial blood-gas analysis, EKG, arterial blood pressure, heart rate [4]: did not have any side effects
Mean recovery of spontaneous breathing ([5]; complete rocuronium-induced block, 90 mg as printed): 723 s
Mean recovery of spontaneous breathing ([5]; complete rocuronium-induced block, dose not given): 10 s
Reversal of rocuronium (in words) ([5]; rats, Motor1 10, 20, 30 mg): reversed rocuronium effectively, in a dose-dependent fashion
Time until normal breathing recovered ([5]; Motor1 10 mg): 120 ± 15 s
Time until normal breathing recovered ([5]; Motor1 20 mg): 15 ± 5 s
Time until normal breathing recovered ([5]; Motor1 30 mg): 8 ± 3 s
Time until quadriceps femoris twitch height normalized ([5]; Motor1 10 mg): 240 s
Time until quadriceps femoris twitch height normalized ([5]; Motor1 20 mg): 120 s
Time until quadriceps femoris twitch height normalized ([5]; Motor1 30 mg): 60 s
% cell death (AK) (HepG2; HepG2, 0.01 mM): 55%
% cell death (AK) (HepG2; HepG2, 0.1 mM): 56%
% cell death (AK) (HepG2; HepG2, 1 mM): 50%
% cell death (AK) (HepG2; HepG2, 10 mM): 17%
Binding constant with Etomidate [6]: 35318 M⁻¹
Percent cell death (AK) (HEK293; HEK293, all concentrations (0.01, 0.1, 1 and 10 mM)): below 5%
Ka, two-fold self-association model [7]: 47 M⁻¹

COc1cc2c3cc1Oc1cc(ccc1O)C[C@@H]1c4c(cc(OC)c(O)c4Oc4ccc(cc4)C[C@@H]3N(C)CC2)CC[N+]1(C)C [tubocurarine]
Ka, binding constant of Motor1 towards guest [10]: 4.7 ± 0.2 × 10^5

COc1ccc(CC2c3cc(OC)c(OC)cc3CC[N+]2(C)CCC(=O)OCCCCCOC(=O)CC[N+]2(C)CCc3cc(OC)c(OC)cc3C2Cc2ccc(OC)c(OC)c2)cc1OC (centres unmarked) [atracurium]
Ka, binding constant of Motor1 towards guest [10]: 1.4 ± 0.1 × 10^6

CC(=O)O[C@H]1C[C@@H]2CC[C@@H]3[C@H](CC[C@@]4(C)[C@H]3C[C@H]([N+]3(C)CCCCC3)[C@@H]4OC(C)=O)[C@@]2(C)C[C@@H]1N1CCCCC1 [vecuronium]
Ka, binding constant of Motor1 towards guest [10]: 5.8 ± 0.9 × 10^6
Ka (M^−1) with Motor2 [1]: 1.6 ± 0.2 × 10^9 M^−1

CC[N+](CC)(CC)CCOc1cccc(OCC[N+](CC)(CC)CC)c1OCC[N+](CC)(CC)CC [gallamine]
Ka, binding constant of Motor1 towards guest [10]: 6.2 ± 0.5 × 10^6
Ka (M^−1) with Motor2 [1]: 3.2 ± 0.4 × 10^8 M^−1

COc1ccc(CC2c3cc(OC)c(OC)cc3CC[N+]2(C)CCC(=O)OCCCCCOC(=O)CC[N+]2(C)CCc3cc(OC)c(OC)cc3C2Cc2ccc(OC)c(OC)c2)cc1OC (centres unmarked) [Atracurium besilate]
Ka (M^−1) with Motor2 ([1]; host Motor2): 1.0 ± 0.1 × 10^9 M^−1
